Laboratory results taken from US20060141122A1 (Universitat De Les Illes Balears and Industrias Agricolas …, priority 1999, published 2006).
Counter-ions that a name gives are not always drawn.

What was measured:
[1] = tested on: urinary risk of forming calcium kidney stones; assay: Urinary risk of forming calcium kidney stones, study on 74 individuals with oxalocalcium kidney stones; type: in vivo, human; conditions: for drop of the risk of forming calcium stones: 15 days after treatment start, citrate 6.48 g/day, phytate 120 mg/day, individuals with oxalocalcium kidney stones
Procedure: These individuals have been divided into three groups: 19 individuals with kidney stones (Group I), 38 individuals with kidney stones (Group II) and 17 individuals with kidney stones (Group III). The urinary risk to form calcium kidney stones was evaluated for each individual before being subjected to any pharmacological treatment.
15 days after treatment starting, the urinary risk of forming calcium kidney stones was evaluated again for each individual.

[2] = Urinary excretion of phytate after dietary intake; type: in vivo
[3] = cited from earlier work

Structure (SMILES) | drop of the risk of forming calcium stones [1] [%] | effect on urine pH ([1]; treatment of calcium kidney stones, compared with citrate) | maximum urinary excretion as share of the total intake ([2]; diet supplemented with products rich in phytates) | intake above which the excreted amount in urine does not increase ([2]; urinary excretion, dose-dependent up to this intake) | effect on bioavailability of oligoelements such as Zn(II) and Fe(III) ([3]; doses in which maximum excretions are produced) | toxicity ([3]; megadose of 8.8 g/day)
O=C(O)CC(O)(CC(=O)O)C(=O)O [citrate, potassium citrate, reference compound] | 52 |  |  |  |  | 
O=P(O)(O)O[C@H]1[C@H](OP(=O)(O)O)[C@@H](OP(=O)(O)O)[C@H](OP(=O)(O)O)[C@@H](OP(=O)(O)O)[C@H]1OP(=O)(O)O [phytate, inositol hexaphosphate] | 50 | does not cause increases of the urine pH | 1-5% | 20.9 mg/kg of body weight | do not affect the bioavailability | does not produce any toxicity
